We go through 3 compounds from paper PMC5862567, “Validating and enabling phosphoglycerate dehydrogenase (PHGDH) as a target for fragment-based drug discovery in PHGDH-amplified breast cancer” (Oncotarget, 2016).

Assay [1] deals with PHGDH. The following applies: cited from earlier work.
Assay [2] has as its target T1, recombinant full-length PHGDH (Homo sapiens, UniProt O43175).
T1 construct: encoding for the full-length enzyme (aa 1-533); His6 (N, cleaved yes); TEV protease recognition site (N, cleaved yes); made in house; host or cells: E. coli Rosetta (DE3)
T1 sequence (O43175 1-533): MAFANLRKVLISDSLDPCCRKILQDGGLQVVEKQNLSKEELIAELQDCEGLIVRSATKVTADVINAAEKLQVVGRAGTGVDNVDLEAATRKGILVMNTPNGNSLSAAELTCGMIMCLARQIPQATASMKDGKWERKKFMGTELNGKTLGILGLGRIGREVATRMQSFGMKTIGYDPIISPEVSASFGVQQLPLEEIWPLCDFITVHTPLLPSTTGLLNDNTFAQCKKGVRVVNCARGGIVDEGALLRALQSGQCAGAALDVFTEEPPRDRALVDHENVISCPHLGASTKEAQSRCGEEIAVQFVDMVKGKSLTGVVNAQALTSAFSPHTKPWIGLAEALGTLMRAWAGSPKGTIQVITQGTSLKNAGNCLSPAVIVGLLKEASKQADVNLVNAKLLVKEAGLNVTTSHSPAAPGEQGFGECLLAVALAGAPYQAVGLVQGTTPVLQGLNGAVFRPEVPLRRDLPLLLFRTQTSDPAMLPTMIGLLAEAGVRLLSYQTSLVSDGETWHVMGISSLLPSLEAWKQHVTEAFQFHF
The assay is described as follows: Differential scanning fluorimetry (DSF) thermal shift assay, fragment screen. The following applies: for Z score: average Z score of primary fragment screens by DSF; for ΔTm at 1000 µM: fragment 1 mM, primary DSF screen, 15 μM PHGDH, read-out: ΔTm (screening hit); for ΔTm (repurchased fragment): DSF. Details: key to Z score: Z-score of Tm shift, in standard deviations from the screen mean. In kind it is binding. The procedure: In this study a ‘rule-of-three’ [18] compliant library of 600 fragments (CRT Cambridge, UK) was screened against recombinant full-length PHGDH using a differential scanning fluorimetry (DSF) assay. PHGDH has an average melting temperature (Tm) of 54 °C. Fragments were screened at 1 mM in the presence of 1 % DMSO. 1 mM NADH was used as positive control, and gave an increased Tm of 61 °C, corresponding to a Δ Tm of 7 °C (Supplementary Figure S2). Hits were determined based on an average Z-score ≥ 1, i.e. to a change in Tm of PHGDH equal to or greater than one standard deviation of the mean (Supplementary Table S1). Applying this threshold, 42 compounds were classified as hits, which corresponds to a hit rate of […]. A subset of 15 fragments was commercially available and were repurchased and further evaluated in an ITC competition experiment (Figure 3, Table 1, Supplementary Figure S3). The ITC competition experiments confirmed binding of 13 fragments to the cofactor-binding pocket of PHGDH. […] In order to further characterise the hits, and to help us prioritise their use as seeds for further hit-expansion studies, we undertook a crystallographic investigation of their respective binding modes.
The DSF assay was performed in 384-well plates (Corning, black) in 25 mM HEPES, pH 7.5, 100 mM NaCl, 0.5 mM TCEP, 10 x SYPRO® Orange (Thermo Fisher Scientific), in a final volume of 15 μL containing 15 μM PHGDH and […]. The fragments were added from a 100 mM master stock in 100 % DMSO to a final concentration of 1 mM using an ECHO® acoustic liquid handler (Labcyte). Reference wells contained DMSO only and 1 mM NADH was used as positive control.
The heat denaturation profile of PHGDH was followed using the fluorescence of Sypro Orange with excitation and emission wavelengths of 470 and 570 nm, respectively. Analysis was performed in GraphPad Prism using the Boltzmann equation to determine the melting temperature, Tm, which is the inflection point of the sigmoidal denaturation curve.
Background: In DSF a fluorescence change marks the thermal transition of the protein.

Assay [3] addresses T2, sPHGDH (aa 3-314), cofactor-binding pocket (Homo sapiens, UniProt O43175).
T2 construct: the truncated version (sPHGDH, aa 3-314); His6 (N, cleaved yes); TEV protease recognition site (N, cleaved yes); made in house; host or cells: E. coli Rosetta (DE3)
T2 sequence (O43175 3-314): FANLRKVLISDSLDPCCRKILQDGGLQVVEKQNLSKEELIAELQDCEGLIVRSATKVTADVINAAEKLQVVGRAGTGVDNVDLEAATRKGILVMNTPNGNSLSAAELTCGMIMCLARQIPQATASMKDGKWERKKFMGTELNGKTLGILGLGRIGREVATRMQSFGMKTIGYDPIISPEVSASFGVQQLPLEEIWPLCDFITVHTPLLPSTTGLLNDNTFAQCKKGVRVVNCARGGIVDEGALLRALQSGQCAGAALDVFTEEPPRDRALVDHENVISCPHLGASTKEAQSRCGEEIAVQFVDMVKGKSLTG
Put plainly: ITC competition experiment (NADH titrated into sPHGDH premixed with fragment). The following applies: for Kd / ΔH / ΔS: competition ITC, 5 mM fragment, 25 °C; for Kd: 0.5 mM NADH into 0.05 mM sPHGDH, 5 % DMSO, read-out: Kd; for LE: ΔG per number of non-hydrogen atoms (= #).
Description: To remove residual bound cofactor, sPHGDH was incubated with 0.5 equivalents of activated charcoal for 30 minutes at room temperature prior to performing the ITC experiments. […] 1 x 0.5 μL, followed by 17 x 2 μL injections of ligands into protein with 120 seconds spacing between the injections was conducted. Titration of 0.5 mM NADH in 5 % DMSO into 0.05 mM sPHGDH in 5 % DMSO was used as reference.

In the case of `CCOC(=O)c1sc(NC(=O)c2ccco2)c(SC#N)c1C` [CBR-5884], in assay [1], the “mode of PHGDH inhibition” value is given as “non-competitive”.

As to `COc1ccc(NC(C)=O)cc1Cl` [Fragment 15, N-(3-chloro-4-methoxyphenyl) acetamide], in assay [2], the Z score came out at 1.2 ± 0.3; the ΔTm – broadly, the shift of the melting midpoint relative to a reference – at 1000 µM was 1.3 ± 0.2 °C; the “ΔTm (repurchased fragment)” value was -0.2 ± 0.4 °C. For the same compound, in assay [3], the Kd (as a rule, the free concentration of one partner at which half of the binding sites on the other are occupied at equilibrium, for simple one-to-one binding) was 2.8 ± 1.6 mM; the ΔH is -419.02 kcal/mol; the ΔS was -5.93 kJ (mol x K); the LE is 0.27 kcal/(mol·heavy atom).

For the compound `Oc1noc2ccccc12` [Fragment 16, 3-Hydroxy benzisoxazole], in assay [2], the Z score is listed as 1.4 ± 0.7, the ΔTm at 1000 µM was 2.5 ± 0.7 °C and the “ΔTm (repurchased fragment)” value was determined as 0.2 ± 0.3 °C. Also, in assay [3], the Kd stood at 6.5 ± 4.7 mM, the ΔH was -91.44 kcal/mol, the ΔS is -1.33 kJ (mol x K) and the LE was 0.3 kcal/(mol·heavy atom).
